Measured values reported in patent US9353061B2, “3,5,N-trihydroxy-alkanamide and derivatives: method for making same and use thereof” (Academia Sinica, priority 2012, dated 2016).
Several values for one entry are separate records, joined by “and”; a condition that tells them apart may be missing. Equal entries are not always repeated. Where two headings read alike, the source gives them in different places.

Columns and labels:
[1] = tested on: A549 human lung cancer cells; experiment: Cell proliferation (MTT) assay, cancer cells; settings: for cell viability of A549 (in words): MTT, FIG. 4A/4D
Protocol: (§4) The cell viability was measured by MTT assay.
(§5) A549 human lung carcinoma cells from American Type Culture Collection (ATCC) were cultured in Dulbecco's Modified Eagle Medium (DMEM). […] All mediums were supplemented with 10% fetal bovine serum (FBS), 100 U/mL penicillin G and 100 mg/mL streptomycin sulfate. Cells were maintained in a humidified incubator containing 5% CO2 in air. Cells were subcultured by trypsinization in laminar flow when grew about 80% in the culture dishes.
(§6) A549 cells were seeded at 3000 cells/well in 96-well plates and maintained for 14-16 hours. Cells were treated with dimethylsulfoxide DMSO or test compounds in varied concentrations for 72 h. Cells were then washed with PBS twice, added a medium containing 3-(4,5-dimethylthiazol-2-yl)-2,5-diphenyltetrazolium bromide (MTT) at a final concentration of 0.5 mg/mL, and incubated for 4 h at 37° C. in a humidified incubator containing 5% CO2 in air. Cells having functional succinate dehydrogenase of mitochondria would convert MTT to formazan. Then, the medium was replaced with 100 μL of DMSO for 30 min at room temperature, and the 96-well plate was read by an ELISA reader at 550 nm to get the absorbance density values. The IC50 values of death cell lines were calculated accordingly.

[2] = tested on: HS68 normal human fibroblast cells; experiment: cells; type: cell-based; settings: for IC50 / cytotoxicity on HS68 normal cells (in words): 72 h; for IC50: MTT assay; for cytotoxicity on HS68 normal cells (in words): MTT, FIG. 4B/4D; for toxicity to normal cells at 100 μM: HS68, 100 μM
Protocol: as §4, §5, §6

[3] = tested on: MEF normal mouse fibroblast cells; experiment: cells; type: cell-based; settings: for IC50 / cytotoxicity on MEF normal cells (in words): 72 h; for IC50: MTT assay; for SI A549/MEF (selectivity index): ratio of IC50 values, cancer cell and normal cell; for cytotoxicity on MEF normal cells (in words): MTT, FIG. 4C/4D; for toxicity to normal cells at 100 μM: MEF
Protocol: as §4, §5, §6

HDAC1 = HDAC1 (Homo sapiens (Human), UniProt Q13547); experiment: HDAC fluorimetric activity assay (Fluor-de-Lys); type: biochemical; settings: recombinant HDAC1
Chain of HDAC1 (Q13547 whole entry): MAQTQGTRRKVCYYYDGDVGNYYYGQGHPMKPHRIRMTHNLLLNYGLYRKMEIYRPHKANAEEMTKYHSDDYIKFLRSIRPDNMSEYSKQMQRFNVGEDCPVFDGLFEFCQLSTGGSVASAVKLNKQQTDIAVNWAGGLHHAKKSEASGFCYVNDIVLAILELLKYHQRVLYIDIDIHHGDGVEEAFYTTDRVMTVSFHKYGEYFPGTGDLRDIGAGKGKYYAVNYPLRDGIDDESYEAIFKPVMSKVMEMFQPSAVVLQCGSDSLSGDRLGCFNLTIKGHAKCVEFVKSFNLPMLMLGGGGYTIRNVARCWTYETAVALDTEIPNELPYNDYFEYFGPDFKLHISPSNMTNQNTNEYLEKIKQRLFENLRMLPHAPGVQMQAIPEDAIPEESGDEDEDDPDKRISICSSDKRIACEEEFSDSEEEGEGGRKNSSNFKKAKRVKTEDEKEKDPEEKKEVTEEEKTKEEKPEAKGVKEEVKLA
Protocol: (§1) The HDAC activity was performed using the HDAC fluorescent activity assay kit (BIOMOL, Plymouth Meeting, Pa., USA) according to the manufacturer's instructions. Briefly, recombinant proteins of HDAC1 or HDAC6 were incubated with test compounds, and HDAC reaction was initiated by addition of Fluor-de-Lys substrate. Samples were incubated for 10 min at room temperature, followed by adding developer to stop the reaction. Fluorescence was measured by fluorometric reader with excitation at 360 nm and emission at 460 nm. The HDAC activity was expressed as arbitrary fluorescence units (AFU). The HDAC activity was calculated as a percentage of activity compared with the control group. The half maximal inhibitory concentration (IC50) values for the test compounds were calculated from software SigmaPlot.
(§2) HDAC fluorometric activity assay was performed using Fluor-de-Lys as the substrate (BIOMOL, Plymouth Meeting, Pa., USA), and HMGR inhibition was evaluated by the […].

HDAC6 = HDAC6 (Homo sapiens (Human), UniProt Q9UBN7); experiment: HDAC fluorimetric activity assay (Fluor-de-Lys); type: biochemical; settings: recombinant HDAC6
Chain of HDAC6 (Q9UBN7 whole entry): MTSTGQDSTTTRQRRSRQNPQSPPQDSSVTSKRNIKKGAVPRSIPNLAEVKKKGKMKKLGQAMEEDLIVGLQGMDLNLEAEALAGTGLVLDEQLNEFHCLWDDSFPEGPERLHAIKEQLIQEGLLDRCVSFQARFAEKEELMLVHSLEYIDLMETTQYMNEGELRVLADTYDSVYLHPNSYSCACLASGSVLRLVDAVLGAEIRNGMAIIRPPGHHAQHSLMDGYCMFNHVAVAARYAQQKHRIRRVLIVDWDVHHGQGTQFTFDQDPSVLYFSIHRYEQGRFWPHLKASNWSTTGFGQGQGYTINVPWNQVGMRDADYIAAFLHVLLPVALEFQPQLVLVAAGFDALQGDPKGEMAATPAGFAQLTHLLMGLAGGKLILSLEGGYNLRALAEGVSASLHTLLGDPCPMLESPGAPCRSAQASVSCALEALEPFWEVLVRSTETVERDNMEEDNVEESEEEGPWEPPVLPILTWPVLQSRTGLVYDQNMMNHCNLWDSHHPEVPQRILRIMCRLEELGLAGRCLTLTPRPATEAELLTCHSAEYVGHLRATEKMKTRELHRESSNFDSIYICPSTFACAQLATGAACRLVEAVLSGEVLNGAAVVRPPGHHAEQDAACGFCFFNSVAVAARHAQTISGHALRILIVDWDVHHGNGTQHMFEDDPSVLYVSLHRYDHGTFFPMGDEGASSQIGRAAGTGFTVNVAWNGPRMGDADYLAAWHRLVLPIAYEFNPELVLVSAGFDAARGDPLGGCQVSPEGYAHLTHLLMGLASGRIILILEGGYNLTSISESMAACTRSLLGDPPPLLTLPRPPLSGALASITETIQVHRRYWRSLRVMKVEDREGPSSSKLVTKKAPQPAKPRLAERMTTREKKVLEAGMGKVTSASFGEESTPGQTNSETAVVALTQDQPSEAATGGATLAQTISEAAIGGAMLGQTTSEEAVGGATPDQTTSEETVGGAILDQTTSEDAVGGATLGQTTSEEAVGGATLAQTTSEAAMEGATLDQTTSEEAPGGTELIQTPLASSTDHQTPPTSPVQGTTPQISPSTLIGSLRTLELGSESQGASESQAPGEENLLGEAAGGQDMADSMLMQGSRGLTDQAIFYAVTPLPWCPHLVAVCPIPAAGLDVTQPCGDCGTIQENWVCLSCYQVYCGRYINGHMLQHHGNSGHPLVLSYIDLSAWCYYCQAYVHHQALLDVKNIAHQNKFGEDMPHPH
Protocol: as §1, §2

HDAC2 = HDAC2 (Homo sapiens (Human), UniProt Q92769); experiment: HDAC fluorimetric activity assay (Fluor-de-Lys); type: biochemical
Chain of HDAC2 (Q92769 whole entry): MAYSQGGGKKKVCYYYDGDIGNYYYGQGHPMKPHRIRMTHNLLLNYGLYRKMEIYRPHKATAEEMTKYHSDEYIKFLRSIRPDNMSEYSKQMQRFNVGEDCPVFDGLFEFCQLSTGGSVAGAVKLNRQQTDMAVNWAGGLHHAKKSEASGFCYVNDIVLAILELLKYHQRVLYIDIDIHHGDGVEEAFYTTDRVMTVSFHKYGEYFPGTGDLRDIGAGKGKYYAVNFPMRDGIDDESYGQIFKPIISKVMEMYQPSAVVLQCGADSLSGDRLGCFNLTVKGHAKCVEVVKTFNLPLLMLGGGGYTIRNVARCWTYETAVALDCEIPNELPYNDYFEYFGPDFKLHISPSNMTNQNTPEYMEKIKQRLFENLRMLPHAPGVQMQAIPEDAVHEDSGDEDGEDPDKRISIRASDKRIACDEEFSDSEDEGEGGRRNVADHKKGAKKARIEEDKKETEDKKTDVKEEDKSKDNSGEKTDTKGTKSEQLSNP

HMG-CoA reductase (HMGR) = HMG-CoA reductase (HMGR) (Homo sapiens (Human), UniProt P04035); experiment: HMG-CoA reductase activity assay (NADPH consumption, Sigma kit); type: biochemical; settings: for IC50: human recombinant protein; for HMGR inhibition (in words): enzyme-based
Chain of HMG-CoA reductase (HMGR) (P04035 426-888): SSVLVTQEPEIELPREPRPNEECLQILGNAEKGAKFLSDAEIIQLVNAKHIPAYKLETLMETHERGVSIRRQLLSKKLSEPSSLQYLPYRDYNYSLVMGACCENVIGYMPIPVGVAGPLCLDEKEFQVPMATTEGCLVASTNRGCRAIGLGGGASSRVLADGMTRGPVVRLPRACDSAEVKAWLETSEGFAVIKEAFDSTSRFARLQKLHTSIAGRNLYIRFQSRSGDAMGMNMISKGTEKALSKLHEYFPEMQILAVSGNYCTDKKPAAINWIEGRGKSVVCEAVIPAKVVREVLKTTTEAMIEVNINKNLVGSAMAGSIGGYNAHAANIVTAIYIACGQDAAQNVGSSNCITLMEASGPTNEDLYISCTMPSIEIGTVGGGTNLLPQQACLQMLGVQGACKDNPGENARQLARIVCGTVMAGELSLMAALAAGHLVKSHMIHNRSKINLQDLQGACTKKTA
Protocol: (§3) The HMGR activity was performed using HMG-CoA reductase assay kit from Sigma-Aldrich with the human recombinant protein or 100 μg total cell lysates from A549 cells. […] HMGR activity under defined assay conditions, containing NADPH and HMG-CoA substrate in a final volume of 0.2 mL of 100 mM potassium phosphatate buffer (120 mM KCl, 1 mM EDTA, 5 mM DTT, pH 7.4), were initiated in the presence or absence (control) of test compounds dissolved in dimethylsulfoxide (DMSO). The rates of NADPH consumption were monitored every 20 seconds, for up to 10 minutes, by spectrophotometer at 37° C. and 340 nm. The HMGR activity was calculated as a percentage of activity compared with the control group at 5 min. The IC50 values were calculated from software SigmaPlot.
as §2

[4] = tested on: AOM/DSS-induced colitis-associated colorectal cancer; experiment: AOM/DSS colitis-associated colorectal cancer model, chemoprevention
Text: All mice were sacrificed at 9 weeks and colon segments were fixed by formalin.
Male C57BL6 mice obtained at 4-5 weeks of age were divided into four groups. […] All mice were sacrificed after 9 weeks and colon segments were fixed in formalin. H&E stain colonic sections were examined for colonic aberrant crypts.
The formation of polyps and colonic tumors were macroscopically observed and counted.

[5] = tested on: AOM/DSS-induced colitis-associated colorectal cancer; experiment: AOM/DSS colitis-associated colorectal cancer model, treatment after AOM/DSS; settings: for AOM/DSS-induced weight loss / clinical symptoms: oral 100 mg/kg, 5 days a week for 3 weeks after AOM/DSS; for histological examination of colon: treatment after AOM/DSS
Protocol: Lova-HA and Atorva-HA were dissolved in corn oil. Lova-HA (100 mg/kg), Atorva-HA (100 mg/kg) or the vehicle (corn oil) was orally administered after AOM/DSS treatment 5 days a week for 3 weeks. All mice were sacrificed after 12 weeks and colon segments were fixed in formalin.
To further investigate whether Lova-HA and Atorva-HA can treat cancer, a C57/BL6 mouse model of colitis-associated CRC was performed after the AOM and 3 cycles of DSS treatment. […] The formation of polyps and colonic tumors were macroscopically observed and counted.

[6] = tested on: acetyl-histone H3 and acetyl-tubulin in A549 lung cancer cells; experiment: Western blot of acetyl-histone H3 and acetyl-tubulin; type: cell-based, human; settings: dose-dependent, FIG. 2
Protocol: FIG. 2 is a photo showing the effect of test compounds on acetylation of histone H3 and tubulin in A549 lung cancer cell lines. […] A549 cells were treated with the indicated doses of test compounds. Total cell lysates were prepared and subjected to SDS-PAGE using adequate percentage of polyacrylamide gels. Immunoblotting was performed using specific antibodies to evaluate the expression of different proteins.
Following treatment with test compounds, cells were lysed on ice. Total cell lysates were centrifuged at 13,000 rpm for 15 min at 4° C., and then subjected to SDS-PAGE using adequate percentage polyacrylamide gels. Immunoblotting was performed using specific antibodies to evaluate the expression of different proteins.
A549 lung cancer cells were treated with the test compound, and the expression of acetyl-histone H3 and acetyl-tubulin were analyzed by SDS-PAGE using immunoblotting.

[7] = biological target: HMG-CoA reductase in A549 lung cancer cells (Homo sapiens (Human), UniProt P04035); experiment: Cell-based assay of HMGR inhibition (cell lysates); settings: A549 cells treated 24 hours, FIG. 3
Chain of HMG-CoA reductase in A549 lung cancer cells (P04035 whole entry): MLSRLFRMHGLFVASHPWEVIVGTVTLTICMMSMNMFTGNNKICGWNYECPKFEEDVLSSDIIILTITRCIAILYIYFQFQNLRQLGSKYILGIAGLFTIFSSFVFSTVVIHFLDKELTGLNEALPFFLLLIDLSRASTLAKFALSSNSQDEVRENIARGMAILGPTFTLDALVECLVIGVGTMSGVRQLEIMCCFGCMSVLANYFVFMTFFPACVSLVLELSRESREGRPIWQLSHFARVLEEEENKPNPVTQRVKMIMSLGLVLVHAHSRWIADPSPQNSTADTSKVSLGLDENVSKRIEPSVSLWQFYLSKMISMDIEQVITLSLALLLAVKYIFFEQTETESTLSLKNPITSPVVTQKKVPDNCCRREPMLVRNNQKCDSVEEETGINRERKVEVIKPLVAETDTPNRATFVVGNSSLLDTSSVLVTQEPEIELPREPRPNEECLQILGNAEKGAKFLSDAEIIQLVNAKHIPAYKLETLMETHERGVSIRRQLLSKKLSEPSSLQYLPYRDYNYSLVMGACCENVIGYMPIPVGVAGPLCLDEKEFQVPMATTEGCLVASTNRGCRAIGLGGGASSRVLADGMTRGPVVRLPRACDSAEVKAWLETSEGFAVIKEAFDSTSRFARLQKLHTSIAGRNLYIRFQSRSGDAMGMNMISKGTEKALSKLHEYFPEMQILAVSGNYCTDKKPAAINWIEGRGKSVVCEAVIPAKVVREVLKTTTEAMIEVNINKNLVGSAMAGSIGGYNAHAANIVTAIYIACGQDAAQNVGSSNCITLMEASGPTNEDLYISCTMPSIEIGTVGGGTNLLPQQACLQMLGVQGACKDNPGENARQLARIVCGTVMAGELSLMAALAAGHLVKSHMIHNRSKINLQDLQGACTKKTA
Protocol: as §3

[8] = Homo sapiens, A549, 72 h, read-out: IC50 (μM) A549, 72 h, MTT assay

Row | SMILES | IC50 ([2]; Homo sapiens, Hs68) [µM] | IC50 ([3]; Mus musculus, Fibroblast) [µM] | SI A549/MEF (selectivity index) [3] | IC50 (HDAC1) [nM] | IC50 (HDAC6) [nM] | IC50 (HDAC2) | IC50 (HMG-CoA reductase (HMGR)) [nM] | IC50 [1, 8] [µM] | cytotoxicity on HS68 normal cells (in words) [2] | toxicity to normal cells at 100 μM [2] | cytotoxicity on MEF normal cells (in words) [3] | toxicity to normal cells at 100 μM [3] | AOM/DSS-induced weight loss [5] | clinical symptoms [5] | histological examination of colon [5] | HMGR inhibition (in words) (HMG-CoA reductase (HMGR)) | further results
1 | CCC(C)(C)C(=O)O[C@H]1C[C@@H](C)C=C2C=C[C@H](C)[C@H](CC[C@@H]3C[C@@H](O)CC(=O)O3)[C@H]21 [simvastatin, reference compound] | 26.4 ± 2.1 | 36.7 ± 4.4 | 2.3 | – | – | – | – | – | – | – | – | – | – | – | – | – | IC50 ([1]; Homo sapiens, A549, 72 h, read-out: IC50 (μM) A549): 16.3 ± 0.1 µM
2 | CCC(C)C(=O)O[C@H]1C[C@@H](C)C=C2C=C[C@H](C)[C@H](CC[C@@H](O)C[C@@H](O)CC(=O)NO)[C@H]21 (some centres unmarked) [Lova-HA] | > 100 | > 100 | >5.6 | 60.1 ± 5.3 | 50.5 ± 4 | 468 ± 27.2 nM | 16.8 ± 1.9 | < 20 | did not have cytotoxicity | not toxic | did not have cytotoxicity | not toxic | – | – | – | – | IC50 ([1]; read-out: IC50 (μM) A549, 72 h, MTT assay, listed as Lova-HA (1)): 18.2 ± 3.4 µM; colon length ([4]; 25 mg/kg oral): 8.6±0.4 cm; colon length ([4]; 50 mg/kg oral): 10.1±0.9 cm
3 | O=C(CCCCCCC(=O)Nc1ccccc1)NO [SAHA, suberoylanalide hydroxamic acid, reference compound] | – | – | – | – | – | – | > 10000 | – | toxic to normal cells | – | toxic to normal cells | – | could not protect | attenuated | surface tumor necrosis | no significant inhibition | cell viability of A549 (in words) ([1]; 72 h): killed cancer cells
4 | CC[C@H](C)C(=O)O[C@H]1C[C@@H](C)C=C2C=C[C@H](C)[C@H](CC[C@@H]3C[C@@H](O)CC(=O)O3)[C@H]21 [Lovastatin, lovastatin] | – | – | – | – | – | – | – | – | – | – | – | – | could not protect | not reversed | adenocarcinomas with dysplasia | – | IC50 [2]: 23.2 ± 3.5 µM; colon length ([4]; 50 mg/kg oral): 8.0±0.9 cm; histological examination of colon ([4]; 50 mg/kg oral): adenocarcinomas with dysplasia; bleeding and diarrhea (clinical symptoms) ([4]; oral, Lova-HA 25 or 50 mg/kg, lovastatin 50 mg/kg): not reversed; body weight loss after AOM/DSS ([4]; oral, Lova-HA 25 or 50 mg/kg, lovastatin 50 mg/kg, 5 days a week for 8 weeks): but not lovastatin could protect the weight loss; IC50 [3]: 35 ± 5.9 µM
5 | CCC(C)(C)C(=O)O[C@H]1C[C@@H](C)C=C2C=C[C@H](C)[C@H](CC[C@@H](O)C[C@@H](O)CC(=O)NO)[C@H]21 [Simva-HA, (3R,5R)-7-{(1S,2S,6R,8S,8aR)-Hexahydro-2,6-dimethyl-8-[2-dimethylbutyryloxy]naphthalenyl}-3,5-dihydroxy-N-hydroxyheptanamide] | > 100 | > 100 | >5.0 | 60.7 ± 3.2 | 67.1 | 400 to 630 nM | 11.4 | < 20 | did not have cytotoxicity | not toxic | did not have cytotoxicity | not toxic | – | – | – | – | IC50 ([1]; read-out: IC50 (μM) A549, 72 h, MTT assay, listed as Simva-HA (2)): 20 ± 3.1 µM
6 | CC(C)c1nc(N(C)S(C)(=O)=O)nc(-c2ccc(F)cc2)c1/C=C/[C@@H](O)C[C@@H](O)CC(=O)NO [Rosuva-HA, (3R,5S,6E)-7-[4-(4-fluorophenyl)-2-(N-methylmethanesulfonamido)-6-isopropylpyrimidin-5-yl]-3,5-dihydroxy-N-hydroxy-6-heptenamide] | – | – | – | 125 ± 7.1 | 133 ± 5.5 | 400 to 630 nM and 600 nM | 43.7 ± 1.6 | – | – | – | – | – | – | – | – | potent HMGR inhibition | acetylation of histone H3 and tubulin [6]: promoted the acetylations of histone and tubulin
7 | CC(C)c1c(C(=O)Nc2ccccc2)c(-c2ccccc2)c(-c2ccc(F)cc2)n1CC[C@@H](O)C[C@@H](O)CC(=O)NO [Atorva-HA, (3R,5R)-7-[2-(4-Fluoro-phenyl)-5-isopropyl-3-phenyl-4-phenylcarbamoylpyrrol-1-yl]-3,5-dihydroxy-N-hydroxyheptanamide] | > 100 | > 100 | >5.7 | 117 | 83.7 | 467 ± 19 nM | 9.2 | < 20 | did not have cytotoxicity | not toxic | did not have cytotoxicity | not toxic | could protect the weight loss | attenuated | surface tumor necrosis | potent HMGR inhibition | acetylation of histone H3 and tubulin [6]: promoted the acetylations of histone and tubulin; number and size of tumors ([5]; 100 mg/kg oral): markedly reduced the number and size of tumors; cell viability of A549 (in words) ([1]; 72 h): reduced; IC50 ([1]; read-out: IC50 (μM) A549, 72 h, MTT assay, listed as Atorva-HA (5)): 17.5 ± 4.7 µM; HMGR inhibition in cell lysates compared with lovastatin [7]: equal or even better activity than lovastatin
8 | CC(C)c1c(C(=O)Nc2ccccc2)c(-c2ccccc2)c(-c2ccc(F)cc2)n1CC[C@@H](O)C[C@@H](O)CC(=O)O [Atorvastatin, atorvastatin] | – | 30.7 ± 3.2 | – | – | – | – | – | – | – | – | – | – | could not protect | not reversed | adenocarcinomas with dysplasia | – | –
